Measurements published in patent US7381521B2, “Anti-pathogenic composition useful in blood preservation” (Altachem Pharma Ltd., priority 2001, dated 2008).

Experiments:
HIV-1 virus = assay: Infectivity of HIV-1 treated 10 minutes with product for normal human T lymphocytes (reverse transcriptase activity, ATI, in culture supernatants); format: cell-based
Description: Infectivity is studied on T lymphocytes obtained from peripheral blood of a healthy human donor and separated on a Ficoll gradient.
The lymphocytes are stimulated for 3 days by phytohaemaglutinin P (PHA P) diluted to 1/500 and cultivated in a complete medium. The blastic cells T are infected by the virus, treated or not, in order to show up residual infectious strength.
The viruses obtained from a supernatant culture of an HIV-1 infected CEM line. This T lymphoblastoid line infected by HIV-1 is used for viral production.
The titer of the supernatant substances used is evaluated after quantitative analysis of the reverse transcriptase activity (ATI) of the virus.
In the following tests, a supernatant substance was used, the ATI of which was 1.8×10^6 cpm/ml.
Preparation of the viral solution: several tubes containing 1 ml viral supernatant, ATI 1.8×10^6 cmp/ml are, concentrated by ultracentrifugation. The resulting virus residues are taken up either by each of the different dilutions of QACs produced in sterile bidistilled water or by water (untreated control virus).
Treatment of viral preparations: the concentrated viral preparations are all treated according to the following procedure:
Treated virus samples: the virus residues concentrated by ultracentrifugation are resuspended in 100, μl of each of the concentrations in terms of products (QACs) studied and incubated for 10 minutes.
Control viral sample: untreated control virus: the product is replaced by 100 μl of sterile bidistilled water.
Following this 10 minute incubation time, the virus present in each sample is rinsed and then reconcentrated by addition of 12 ml of RPMI 1640 medium and ultracentrifugation. The virus residues are then taken up in 1 ml of complete medium and used for infecting normal human T lymphocytes.
Measurement of the infectivity of the samples: 4×10^6 normal human T lymphocytes are infected with each of the treated viral preparations or controls mentioned hereinabove. Infection of the T cells is carried out according to a previously described method (F. Barre Sinoussi et al. Science, 1983, 220:868-871): to sum up, 4×10^6 cells in suspension in 1 ml of complete medium are incubated with 1 ml of each of the treated vial preparations or controls for 1 hour at 37° C.
After two washings using several millilitres of culture medium, the cellular suspensions are adjusted to the concentration of 1×10^6 cells per ml. The day of the infection is regarded as day 0.
Viral production during the course of time is determined by measuring the reverse transcriptase activity present in the culture supernatants using the procedure described below.
This quantitative analysis makes it possible to evaluate the presence of noninactivated residual virus in the staring sample. It is carried out on a basis of 1 ml of culture supernatant taken every 2 or 3 days and ultracentrifuged.
The enzymatic activities are measured in 50 μl of a reaction mixture containing 50 mM Tris pH 7.8, 20 mM MgCl2, 20 mM KCl, 2 mM dithiotreitol, 0.25 OD/ml, oligo dT, 0.25 OD/ml poly rA, 0.1% Triton×100 and 2.5 μCi 3H DTTP.
After incubation for 1 hour at 37° C., the reaction is stopped by the addition of 10 μl of 0.2 M EDTA and the samples are deposited on DE81 membranes.
After several washings using 5% Na2HPO4, then by distilled water, the membranes are dried and the radioactivity measured by means of a p scintillation counter (PACKARD).

C. albicans ATCC 1031 = assay: Test 2 (DGHM), action as a function of disinfection time at 22° C., 8 × 10^7 organisms/ml; format: cell-based, Candida albicans
Description: Another test was carried out a basis of the following solutions • 100 ml of a 0.1% solution of chlorohexidine digluconate (pH 6); and • 100 ml of a 0.1% solution of Bardac22®.
The activity of these solutions, alone or in combination, was more particularly tested in respect of Staphylococcus aureus ATCC 6538, Escherichia coli ATCC 11229 and Candida albicans ATCC 10231.
The tests were conducted in accordance with the procedure described in Chapter I/2.1 and 2.2 of Tichtlinien für die Prüfung und Bewertung chemischer Desinfektionsverfahren der DGHM/Guidelines for Testing and Evaluating Chemical Disinfection Processes of DGHM as at 1.1, 1981.

[1] = system: erythrocytes in heparinized bovine blood; assay: In-vitro hemolysis of erythrocytes in heparinized whole blood, absorbance at 413 nm; details: 1 hour at 37° C.
Description: The effect of the compounds on the in-vitro hemolysis of erythrocytes in heparinized whole blood is monitored by a spectrophotometric method.
Various formulations and concentrations of the test compound are added to heparinized bovine blood and mixed gently in a 1.5 ml microcentrifuge tube. The sample is allowed to incubate for 1 hour at 37° C. At the end of incubation, the samples are removed from the incubator and centrifuged at 2000 rpm for 5 minutes. A 200 μl aliquot of the supernatant is removed from each sample into a 96 well microtiter plate and read at 413 nm. The absorbance of the test sample is compared to the control sample containing phosphate buffered saline, pH 7.2.

`[H]/N=C(\N/C(=N/[H])NCCCCCCNC(=N)NC(=N)Nc1ccc(Cl)cc1)Nc1ccc(Cl)cc1` [Chlorhexidine, chlorohexidine digluconate, reference compound] was tested, and the ATI in supernatant (HIV-1 virus; Chlorhexidine 0.005%, J3) was 360 cpm/ml, the ATI in supernatant (HIV-1 virus; Chlorhexidine 0.005%, J10) was 580 cpm/ml and the ATI in supernatant (HIV-1 virus; Chlorhexidine 0.005%, J30) was 720 cpm/ml. It also gave an ATI in supernatant (HIV-1 virus; Chlorhexidine 0.01%, J10) of 200 cpm/ml, an ATI in supernatant (HIV-1 virus; Chlorhexidine 0.01%, J13) of 250 cpm/ml and an ATI in supernatant (HIV-1 virus; Chlorhexidine 0.01%, J17) of 230 cpm/ml. For the same compound, the ATI in supernatant (HIV-1 virus; Chlorhexidine 0.01%, J27) was 420 cpm/ml, the growth (C. albicans ATCC 1031; 0.05% vol/vol, 1 min) was “+” and the growth (C. albicans ATCC 1031; 0.05% vol/vol, 3 min) was “+”. For the same compound, the growth (C. albicans ATCC 1031; 0.05% vol/vol, 5 min) was “+”, the growth (C. albicans ATCC 1031; 0.05% vol/vol, 15 min) was “+” and the growth (C. albicans ATCC 1031; 0.05% vol/vol, 30 min) was “+”. The growth (C. albicans ATCC 1031; 0.05% vol/vol, 60 min) was “+”, the growth (C. albicans ATCC 1031; 0.1% vol/vol, 1 min) was “+” and the growth (C. albicans ATCC 1031; 0.1% vol/vol, 3 min) was “+”. For the same compound, the growth (C. albicans ATCC 1031; 0.1% vol/vol, 5 min) was “+”, the growth (C. albicans ATCC 1031; 0.1% vol/vol, 15 min) was “+” and the growth (C. albicans ATCC 1031; 0.1% vol/vol, 30 min) was “+”. For the same compound, the growth (C. albicans ATCC 1031; 0.1% vol/vol, 60 min) was “+”, the growth (C. albicans ATCC 1031; 0.5% vol/vol, 1 min) was “+” and the growth (C. albicans ATCC 1031; 0.5% vol/vol, 3 min) was “+”. For the same compound, the growth (C. albicans ATCC 1031; 0.5% vol/vol, 5 min) was “+”, the growth (C. albicans ATCC 1031; 0.5% vol/vol, 15 min) was “+” and the growth (C. albicans ATCC 1031; 0.5% vol/vol, 30 min) was “+”. For the same compound, the growth (C. albicans ATCC 1031; 0.5% vol/vol, 60 min) was “+”, the growth (C. albicans ATCC 1031; 1% vol/vol, 1 min) was “+” and the growth (C. albicans ATCC 1031; 1% vol/vol, 3 min) was “+”. The growth (C. albicans ATCC 1031; 1% vol/vol, 5 min) was “+”, the growth (C. albicans ATCC 1031; 1% vol/vol, 15 min) was “+” and the growth (C. albicans ATCC 1031; 1% vol/vol, 30 min) was “+”. The growth (C. albicans ATCC 1031; 1% vol/vol, 60 min) was “−”, the growth (C. albicans ATCC 1031; 5% vol/vol, 1 min) was “+” and the growth (C. albicans ATCC 1031; 5% vol/vol, 3 min) was “+”. The growth (C. albicans ATCC 1031; 5% vol/vol, 5 min) was “+”, the growth (C. albicans ATCC 1031; 5% vol/vol, 15 min) was “+” and the growth (C. albicans ATCC 1031; 5% vol/vol, 30 min) was “−”. The growth (C. albicans ATCC 1031; 5% vol/vol, 60 min) was “−”, the growth (C. albicans ATCC 1031; 10% vol/vol, 1 min) was “+” and the growth (C. albicans ATCC 1031; 10% vol/vol, 3 min) was “+”. The growth (C. albicans ATCC 1031; 10% vol/vol, 5 min) was “+”, the growth (C. albicans ATCC 1031; 10% vol/vol, 15 min) was “+” and the growth (C. albicans ATCC 1031; 10% vol/vol, 30 min) was “−”. The growth (C. albicans ATCC 1031; 10% vol/vol, 60 min) was “−”, the growth (C. albicans ATCC 1031; 25% vol/vol, 1 min) was “+” and the growth (C. albicans ATCC 1031; 25% vol/vol, 3 min) was “+”. For the same compound, the growth (C. albicans ATCC 1031; 25% vol/vol, 5 min) was “+”, the growth (C. albicans ATCC 1031; 25% vol/vol, 15 min) was “−” and the growth (C. albicans ATCC 1031; 25% vol/vol, 30 min) was “−”. The growth (C. albicans ATCC 1031; 25% vol/vol, 60 min) was “−”, the “Concentration at which hemolysis is not observed” value ([1]; component of test compound Bardac 22 + Chlorohexidine Gluconate + Tergitol NP-9) was 0.001% and the “Concentration at which hemolysis is not observed” value ([1]; component of test compound Bardac 22 + Chlorohexidine Gluconate) was 0.0125%.
